According to article PMC8878317, “Chemogenomics identifies acetyl-coenzyme A synthetase as a target for malaria treatment and prevention” (Cell Chemical Biology, 2022):

Test system: P. falciparum 3D7 parasites
Assay: Metabolomic profiling of compound-treated parasites (LC/MS);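 on Metabolite data: 3-Phosphoglycerate: Log2 fold change in abundance versus untreated parasite controls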;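 on Metabolite data: Myo-Inositol: Log2 fold change in abundance versus untreated parasite controls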;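 on Metabolite data: N-Carbamoyl-L-Aspartate: Log2 fold change in abundance versus untreated parasite controls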;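 on Metabolite data: Nicotinate: Log2 fold change in abundance versus untreated parasite controls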
Type: cell-based
Set-up: Metabolite data: dTMP / Metabolite data: GMP / Metabolite data: S-Adenosyl-L-Homocysteine / Metabolite data: 1_3-Bisphosphoglyceric acid: scale not given here
Experimental: The metabolite extraction protocol was performed as described elsewhere ([Allman et al., 2016]). Briefly, 1 mL of trophozoites that were magnetically purified to a concentration of 1×10^8 parasites/mL were placed into wells with 4 mL of RPMI 1640 media and allowed to recover for one hour. […] The culture was incubated for another 2.5 hr. The culture was centrifuged and quenched with 90% methanol containing 0.25 μM ^13C,^15N-Labeled-Aspartate, vortexed, and centrifuged. The supernatant was transferred to a new tube and dried for storage. Prior to analysis, the samples were resuspended to a final concentration of 1×10^8 parasites/mL in a solution of 3% methanol:water containing 1 μM chlorpropamide as an internal standard.
The chromatographic conditions used in this experiment were performed with slight modifications from previous methods ([Zhang et al., 2018]). Briefly, a Waters XSelect HSS C18 column was used on a gradient reverse-phase chromatographic configuration with 97:3 water:methanol with 10 mM tributylamine and 15 mM acetic acid (solvent A) and methanol (solvent B). A Thermo-Scientific Exactive Plus Orbitrap mass spectrometer was operated in negative mode for the detection of the metabolites. Peak picking and integration were performed using El-Maven LC/MS data processing software. The peak data were then exported to Excel where metabolite areas were normalized to the internal standards, blank subtracted, and averaged by condition.

CCN(CC)S(=O)(=O)c1ccc(Cl)c(C(=O)Nc2ccc3nc(C)sc3c2)c1 [MMV019721-1]
Metabolite data: 1_3-Bisphosphoglyceric acid: -0.1327 | Metabolite data: 2_3-Diphosphoglyceric acid: -0.1327 | Metabolite data: 3-Phosphoglycerate: 0.1031 | Metabolite data: 4-Aminobutyrate: 0.07842 | Metabolite data: 4-Phosphopantothenate: -0.4201 | Metabolite data: 4-phosphopantetheine: 0.1181 | Metabolite data: 5-aminopentanoic acid: 0.1488 | Metabolite data: 5-phosphoribosyl-1-pyrophosphate: -0.2633 | Metabolite data: 6-Phospho-D-Gluconate: -0.03558 | Metabolite data: ADP-D-Glucose: -0.0516 | Metabolite data: Acetyl-CoA: -1.632 | Metabolite data: Acetyllysine: -1.142 | Metabolite data: Aconitate: 0.3403 | Metabolite data: CDP: 0.8015 | Metabolite data: CDP-Ethanolamine: -0.104 | Metabolite data: CDP-choline: -0.1284 | Metabolite data: CMP: 0.9966 | Metabolite data: CTP: 0.6705 | Metabolite data: Citrate/Isocitrate: 0.04997 | Metabolite data: Cyclic-AMP: 0.2994 | Metabolite data: Dihydroorotate: -0.5549 | Metabolite data: FAD: 0.1056 | Metabolite data: FMN: -0.0123 | Metabolite data: Fructose-1,6-Bisphosphate: -0.009501 | Metabolite data: Fumarate: 0.02182 | Metabolite data: GDP: 0.2889 | Metabolite data: GMP: 0.4991 | Metabolite data: GTP: 0.06975 | Metabolite data: Glucose-1/6-Phosphate: -0.427 | Metabolite data: Glutathione Disulfide: 0.05831 | Metabolite data: Hexose: 0.379 | Metabolite data: Hydroxyisocaproic acid: -0.1664 | Metabolite data: Indole: 0.2013 | Metabolite data: Ketoleucine: -0.05747 | Metabolite data: L-arginino-succinate: 0.0004889 | Metabolite data: Lactate: 0.02998 | Metabolite data: Malate: 0.2897 | Metabolite data: Myo-Inositol: 0.2086 | Metabolite data: N-Acetyl-Glutamate: -0.6054 | Metabolite data: N-Acetyl-L-Alanine: 0.6768 | Metabolite data: N-Acetyl-L-Ornithine: -0.7962 | Metabolite data: N-Carbamoyl-L-Aspartate: -1.055 | Metabolite data: NAD+: 0.01132 | Metabolite data: NADH: 0.3116 | Metabolite data: NADP+: -0.07183 | Metabolite data: NADPH: 0.3145 | Metabolite data: Nicotinate: -0.004899 | Metabolite data: Octulose 8/1-Phosphate: 0.05155 | Metabolite data: Orotate: -0.6691 | Metabolite data: PD: -0.67 | Metabolite data: PE: -0.6545 | Metabolite data: PEEK: -0.6134 | Metabolite data: Phenol Red: 0.04234 | Metabolite data: Pyroglutamic acid: 0.6121 | Metabolite data: S-Adenosyl-L-Homocysteine: -0.2319 | Metabolite data: S-methyl-5'-thioadenosine: -0.02605 | Metabolite data: SD: -0.5163 | Metabolite data: Sedoheptulose Bisphosphate: -0.09842 | Metabolite data: UDP: 0.4977 | Metabolite data: UDP-D-Glucose: 0.03674 | Metabolite data: UDP-D-Glucuronate: 0.09403 | Metabolite data: UDP-N-Acetyl-Glucosamine: -0.09294 | Metabolite data: UMP: 0.6643 | Metabolite data: UTP: 0.267 | Metabolite data: a-ketoglutarate: 0.1182 | Metabolite data: acetyl-aspartate: 0.3762 | Metabolite data: arginine: 0.5929 | Metabolite data: asparagine: -0.2373 | Metabolite data: aspartate: 0.131 | Metabolite data: biotin: -0.04985 | Metabolite data: chlorpropamide: 0.3559 | Metabolite data: coenzyme A: 0.324 | Metabolite data: dAMP: 0.02964 | Metabolite data: dATP: 0.04443 | Metabolite data: dCDP: 0.4313 | Metabolite data: dCMP: 0.6234 | Metabolite data: dCTP: 0.2767 | Metabolite data: dGDP/ADP: 0.453 | Metabolite data: dGMP/AMP: 0.01705 | Metabolite data: dGTP/ATP: -0.2944 | Metabolite data: dTDP: 0.442 | Metabolite data: dTMP: 0.5345 | Metabolite data: dTTP: -0.02333 | Metabolite data: folate: 0.09364 | Metabolite data: glucono-lactone: 0.02131 | Metabolite data: glutamate: 0.09413 | Metabolite data: glutamine: 0.06047 | Metabolite data: glutathione: -0.1419 | Metabolite data: histidine: -0.01478 | Metabolite data: hydroxyproline/Aminolevulinate: 0.7882 | Metabolite data: isoleucine: 0.1307 | Metabolite data: leucine: 0.06401 | Metabolite data: maleic acid: 0.03547 | Metabolite data: methionine: 0.07829 | Metabolite data: nicotinamide mononucleotide: -0.2621 | Metabolite data: orotidine-5'-phosphate: -2.856

O=C(NNC(=O)c1csnn1)c1ccc(Cl)cc1 [MMV084978-1]
Metabolite data: 1_3-Bisphosphoglyceric acid: 0.1496 | Metabolite data: 2_3-Diphosphoglyceric acid: 0.1496 | Metabolite data: 3-Phosphoglycerate: 0.2498 | Metabolite data: 4-Aminobutyrate: -0.07219 | Metabolite data: 4-Phosphopantothenate: -0.08759 | Metabolite data: 4-phosphopantetheine: -0.1079 | Metabolite data: 5-aminopentanoic acid: 0 | Metabolite data: 5-phosphoribosyl-1-pyrophosphate: 0 | Metabolite data: 6-Phospho-D-Gluconate: -0.01315 | Metabolite data: ADP-D-Glucose: 0.08201 | Metabolite data: Acetyl-CoA: -3.327 | Metabolite data: Acetyllysine: -0.5311 | Metabolite data: Aconitate: -0.1935 | Metabolite data: CDP: 1.05 | Metabolite data: CDP-Ethanolamine: 0.1123 | Metabolite data: CDP-choline: -0.1263 | Metabolite data: CMP: 1.555 | Metabolite data: CTP: 0.5959 | Metabolite data: Citrate/Isocitrate: -0.25 | Metabolite data: Cyclic-AMP: -0.2917 | Metabolite data: Dihydroorotate: -1.467 | Metabolite data: FAD: 0.02838 | Metabolite data: FMN: 0.1073 | Metabolite data: Fructose-1,6-Bisphosphate: -0.1507 | Metabolite data: Fumarate: -0.2504 | Metabolite data: GDP: 0.1753 | Metabolite data: GMP: 0.5608 | Metabolite data: GTP: 0.3192 | Metabolite data: Glucose-1/6-Phosphate: 0 | Metabolite data: Glutathione Disulfide: -0.0421 | Metabolite data: Hexose: 0.4607 | Metabolite data: Hydroxyisocaproic acid: 0 | Metabolite data: Indole: -0.02938 | Metabolite data: Ketoleucine: 0 | Metabolite data: L-arginino-succinate: -0.1583 | Metabolite data: Lactate: -0.4518 | Metabolite data: Malate: -0.3092 | Metabolite data: Myo-Inositol: -0.662 | Metabolite data: N-Acetyl-Glutamate: -1.234 | Metabolite data: N-Acetyl-L-Alanine: -0.1942 | Metabolite data: N-Acetyl-L-Ornithine: -0.6079 | Metabolite data: N-Carbamoyl-L-Aspartate: -1.86 | Metabolite data: NAD+: -0.05754 | Metabolite data: NADH: -0.03997 | Metabolite data: NADP+: -0.01332 | Metabolite data: NADPH: -0.02772 | Metabolite data: Nicotinate: -0.2079 | Metabolite data: Octulose 8/1-Phosphate: 0.04337 | Metabolite data: Orotate: -1.48 | Metabolite data: PD: -0.5076 | Metabolite data: PE: -0.5728 | Metabolite data: PEEK: -0.4082 | Metabolite data: Phenol Red: -0.09162 | Metabolite data: Pyroglutamic acid: -0.04117 | Metabolite data: S-Adenosyl-L-Homocysteine: -0.1413 | Metabolite data: S-methyl-5'-thioadenosine: -0.2314 | Metabolite data: SD: -0.5901 | Metabolite data: Sedoheptulose Bisphosphate: -0.08586 | Metabolite data: UDP: 0.6291 | Metabolite data: UDP-D-Glucose: 0.0869 | Metabolite data: UDP-D-Glucuronate: 0.1009 | Metabolite data: UDP-N-Acetyl-Glucosamine: -0.1998 | Metabolite data: UMP: 1.083 | Metabolite data: UTP: 0.2924 | Metabolite data: a-ketoglutarate: -0.2708 | Metabolite data: acetyl-aspartate: -0.01834 | Metabolite data: arginine: 0.1881 | Metabolite data: asparagine: 0.1209 | Metabolite data: aspartate: 0.4643 | Metabolite data: biotin: -0.04446 | Metabolite data: chlorpropamide: -1.60E-16 | Metabolite data: coenzyme A: -0.006892 | Metabolite data: dAMP: 0.6117 | Metabolite data: dATP: 0.1596 | Metabolite data: dCDP: -0.02418 | Metabolite data: dCMP: 0.3076 | Metabolite data: dCTP: 0.1432 | Metabolite data: dGDP/ADP: -0.04263 | Metabolite data: dGMP/AMP: -0.1821 | Metabolite data: dGTP/ATP: 0.1752 | Metabolite data: dTDP: 0.5413 | Metabolite data: dTMP: 0.4313 | Metabolite data: dTTP: 0.1959 | Metabolite data: folate: -0.04496 | Metabolite data: glucono-lactone: -0.03642 | Metabolite data: glutamate: -0.04994 | Metabolite data: glutamine: 0.01906 | Metabolite data: glutathione: -0.07032 | Metabolite data: histidine: -0.03336 | Metabolite data: hydroxyproline/Aminolevulinate: -0.01874 | Metabolite data: isoleucine: 0.003243 | Metabolite data: leucine: -0.0173 | Metabolite data: maleic acid: -0.282 | Metabolite data: methionine: 0.1423 | Metabolite data: nicotinamide mononucleotide: -0.4705 | Metabolite data: orotidine-5'-phosphate: -2.397
